Source: patent US20180071303A1, “SYK INHIBITORS” (Gilead Sciences, Inc., priority 2016, published 2018)

Experiments:
previously untreated AML = assay: phase 1b/2 study (NCT02343939) of entospletinib monotherapy followed by combination with daunorubicin and cytarabine; conditions: for complete remission (CR) rate: with induction chemotherapy
Source text: Patients with residual disease two weeks after chemotherapy received a second induction cycle identical to the first.

[1] = Nijjar J. S. et al., Rheumatology 2013; cited from earlier work

| SMILES | patients requiring a second induction (previously untreated AML; 200 mg BID, 3 patients) | complete remission (CR) rate (previously untreated AML; 200 mg BID, 3 patients) | dose limiting toxicity (DLT) (previously untreated AML; 200 mg BID, three patients) | dose limiting toxicity (DLT) (previously untreated AML; 400 mg BID, 3 additional patients (DL 1 expanded)) | patients requiring a second induction (previously untreated AML; 400 mg BID, 6 patients) | complete remission (CR) rate (previously untreated AML; 400 mg BID, 6 patients) | adverse event possibly related to entospletinib (previously untreated AML; 400 mg BID, one of three patients, with documented fungal pneumonia, did not meet DLT criteria) | platelet response during the window period (previously untreated AML; another patient with 11q23-rearranged AML, monotherapy window) | toxicities after combination with intensive chemotherapy (previously untreated AML; combination with daunorubicin and cytarabine) | tolerability of combination with intensive chemotherapy (previously untreated AML; doses up to 400 mg BID) | tolerability of single-agent entospletinib (previously untreated AML; monotherapy window period (up to 14 days), AML patients) | clinical activity in AML (previously untreated AML; overall conclusion) | most common non hematologic adverse events (previously untreated AML; overall, inclusive of intensive chemotherapy periods) | response after entospletinib monotherapy window (previously untreated AML; person with 11q23-rearranged AML, 14 day monotherapy, prior to chemotherapy) | adverse side effects [1] |
| --- | --- | --- | --- | --- | --- | --- | --- | --- | --- | --- | --- | --- | --- | --- | --- |
| c1cn2cc(-c3ccc4cn[nH]c4c3)nc(Nc3ccc(N4CCOCC4)cc3)c2n1 [entospletinib] | two | 100% | no DLT was observed | none of whom experienced DLT | none | 100% | grade 3 pneumonitis | significant platelet response | common and typical | well tolerated | well tolerated | significant clinical activity | febrile neutropenia, nausea, and diarrhea | achieved morphologic and cytogenetic CR | – |
| COc1cc(Nc2ncc(F)c(Nc3ccc4c(n3)N(COP(=O)(O)O)C(=O)C(C)(C)O4)n2)cc(OC)c1OC [Fostamatinib] | – | – | – | – | – | – | – | – | – | – | – | – | – | – | hypertension, neutropenia and transaminitis |
